Reference: US10611733B2, “Quinazolinone analogs and use of quinazolinone analogs for treating or preventing certain viral infections” (priority 2011, dated 2020)
Read-outs that look alike come from different tables or passages of the source.

Legend:
[1] = HCV Con 1b (Replicon) RNA end-point; format: cell-based, Hepatitis C Virus; details: HCV Con 1b subgenomic replicon cell line; HCV Con 1b replicon, RNA end-point; read-out: TC50 (the source's name)
Method: (§1) The reduction in HCV was determined with two assays using viral RNA endpoints. […] This cell line expresses a subgenomic section of the HCV genome containing NS2a, NS2b, NS3a, NS3b, NS4a, NS4b, NS5a and NS5b.

HCV Con 1b (Replicon) = HCV Con 1b (Replicon) RNA end-point; format: cell-based, Hepatitis C Virus; details: for IC50 / CC50: HCV Con 1b replicon, RNA end-point; for CC50: read-out: TC50 (the source's name)
Method: as §1

WNV antiviral assay = format: cell-based, West Nile Virus; details: read-out: TC50 (the source's name)
Source text: (§2) The use of N-(2,3-dihydro-1H-inden-5-yl)-2-(4-oxo-3-phenyl-3,4-dihydroquinazolin-2-yl)thio) acetamide, a compound employed according to the present disclosure, for treating West Nile Virus has been disclosed. For example, please see Chung et al. A Cell Based Assay for the Identification of Lead Compounds with Anti-Viral Activity Against West Nile Virus, Probe Reports from the NIH Molecular Libraries Program[Internet]. Bethesda (Md.): National Center for Biotechnology Information (US); 2010-2010 Feb. 27 [updated 2010 Oct. 4], PMID: 21433390 [PubMed].

WNV = WNV antiviral assay; format: cell-based, West Nile Virus; details: for CC50: read-out: TC50 (the source's name)
Source text: as §2

[2] = JEV cell based virus CPE reduction assay; set-up: species or system Japanese Encephalitis Virus; details: read-out: TC50 (the source's name)
Source text: as §2

JEV = JEV cell based virus CPE reduction assay; set-up: species or system Japanese Encephalitis Virus; details: for CC50: read-out: TC50 (the source's name)
Source text: as §2

[3] = HCV Con1b (Replicon) Luciferase end-point; format: cell-based, Hepatitis C Virus; details: HCV Con1b subgenomic replicon cell line, read-out: TC50 (the source's name)
HCV Con1b (Replicon) = HCV Con1b (Replicon) Luciferase end-point; format: cell-based, Hepatitis C Virus; details: for CC50: read-out: TC50 (the source's name)

Row | SMILES | IC50 (HCV Con1b (Replicon)) [µM] | CC50 (HCV Con1b (Replicon)) [µM] | IC50 (WNV) [µM] | CC50 (WNV) [µM] | further results
1 | O=C(CSc1nc2ccccc2c(=O)n1-c1ccccc1)Nc1ccc2c(c1)CCC2 [Example C1] | – | – | – | – | CC50 [1]: ≥ 100 µM; IC50 (HCV Con 1b (Replicon); Hepatitis C virus): 5 to 25 µM; activity against Hepatitis C Virus (HCV Con 1b (Replicon); text statement referring to Table 1): activity was observed; CC50 (WNV antiviral assay): ≥ 100 µM; IC50 (WNV; West Nile virus): 5 to 25 µM
2 | Cc1csc(NC(=O)CSc2nc3ccccc3c(=O)n2-c2ccc(Cl)c(Cl)c2)n1 [Example C8, 2-(3-(3,4-dichlorophenyl)-4-oxo-3,4-dihydroquinazolin-2-ylthio)-N-(4-methylthiazol-2-yl)acetamide] | – | – | – | – | CC50 [2]: ≥ 100 µM; IC50 (JEV; Japanese encephalitis virus): 5 to 25 µM; CC50 [3]: ≥ 100 µM; IC50 (HCV Con1b (Replicon); Hepatitis C virus): 1 to 5 µM
3 | O=C(CSc1nc2ccccc2c(=O)n1-c1ccc(F)c(Cl)c1)Nc1ccc2c(c1)CCC2 [Example C12, 2-[3-(3-chloro-4-fluorophenyl)-4-oxo(3-hydroquinazolin-2-ylthio)]-N-indan-5-ylacetamide] | 1 to 5 | ≥ 100 | 5 to 25 | ≥ 100 | IC50 (HCV Con 1b (Replicon)): < 1 µM; CC50 (HCV Con 1b (Replicon)): 50 to 100 µM
4 | O=C(CSc1nc2ccccc2c(=O)n1-c1ccc(Cl)c(Cl)c1)Nc1ccc2c(c1)CCC2 [Example C13, 2-[3-(3,4-dichlorophenyl)-4-oxo(3-hydroquinazolin-2-ylthio)]-N-indan-5-ylacetamide] | 1 to 5 | 50 to 100 | 5 to 25 | ≥ 100 | –
5 | O=C(CSc1nc2cccc(F)c2c(=O)n1-c1ccccc1)Nc1ccc2c(c1)CCC2 [Example C15, 2-(5-fluoro-4-oxo-3-phenyl(3-hydroquinazolin-2-ylthio))-N-indan-5-ylacetamide] | – | – | – | – | IC50 (HCV Con 1b (Replicon)): 1 to 5 µM; CC50 (HCV Con 1b (Replicon)): ≥ 100 µM; IC50 (JEV): 5 to 25 µM; CC50 (JEV): ≥ 100 µM
6 | COc1cccc2c(=O)n(-c3ccccc3)c(SCC(=O)Nc3ccc4c(c3)CCC4)nc12 [Example C17, N-indan-5-yl-2-(8-methoxy-4-oxo-3-phenyl(3-hydroquinazolin-2-ylthio))acetamide] | 1 to 5 | ≥ 100 | – | – | IC50 (JEV): 5 to 25 µM; CC50 (JEV): ≥ 100 µM
7 | Cc1csc(NC(=O)CSc2nc3ccccc3c(=O)n2-c2ccc(Cl)c(Cl)c2)n1 [Example C24, 2-[3-(3,4-dichlorophenyl)-4-oxo(3-hydroquinazolin-2-ylthio)]-N-(4-methyl(1,3-thiazol-2-yl))acetamide] | 1 to 5 | ≥ 100 | – | – | IC50 (JEV): 5 to 25 µM; CC50 (JEV): ≥ 100 µM
8 | O=C(CCSc1nc2ccccc2c(=O)n1-c1cc(F)c(F)c(F)c1)Nc1ccc2c(c1)CCC2 [Example C25, N-indan-5-yl-3-[4-oxo-3-(3,4,5-trifluorophenyl)(3-hydroquinazolin-2-ylthio)]propanamide] | – | – | – | – | IC50 (JEV): 5 to 25 µM; CC50 (JEV): ≥ 100 µM
9 | O=C(CSc1nc2ccccc2c(=O)n1-c1ccc(F)c(F)c1)Nc1cccc2c1CCC2 [Example C26, 2-[3-(3,4-difluorophenyl)-4-oxo(3-hydroquinazolin-2-ylthio)]-N-indan-4-ylacetamide] | < 1 | ≥ 100 | – | – | IC50 (HCV Con 1b (Replicon)): < 1 µM; CC50 (HCV Con 1b (Replicon)): 50 to 100 µM
10 | O=C(CSc1nc2ccccc2c(=O)n1-c1ccc(F)c(F)c1)Nc1ccc2c(c1)CCC2 [Example C27, 2-[3-(3,4-difluorophenyl)-4-oxo(3-hydroquinazolin-2-ylthio)]-N-indan-5-ylacetamide] | 5 to 25 | ≥ 100 | 5 to 25 | ≥ 100 | –
11 | O=C(CSc1nc2cccc(F)c2c(=O)n1-c1ccc(Cl)c(Cl)c1)Nc1ccc2c(c1)CCC2 [Example C31] | < 1 | 10 to 50 | 5 to 25 | ≥ 100 | –
12 | Cc1cc(-n2c(SCC(=O)Nc3ccc4c(c3)CCC4)nc3ccccc3c2=O)ccc1F [Example C34, 2-[3-(4-fluoro-3-methylphenyl)-4-oxo(3-hydroquinazolin-2-ylthio)]-N-indan-5-ylacetamide] | – | – | 5 to 25 | ≥ 100 | –
13 | O=C(CSc1nc2ccccc2c(=O)n1-c1cc(F)c(F)c(F)c1)Nc1ccc2c(c1)CCC2 [Example C35, N-indan-5-yl-2-[4-oxo-3-(3,4,5-trifluorophenyl)(3-hydroquinazolin-2-ylthio)]acetamide] | – | – | 5 to 25 | ≥ 100 | –
14 | Cc1ccc(-n2c(SCC(=O)Nc3ccc4c(c3)CCC4)nc3ccccc3c2=O)cc1Br [Example C36, 2-[3-(3-bromo-4-methylphenyl)-4-oxo(3-hydroquinazolin-2-ylthio)]-N-indan-5-ylacetamide] | – | – | 5 to 25 | ≥ 100 | –
15 | O=C(CSc1nc2c(F)cccc2c(=O)n1-c1ccc(Cl)c(Cl)c1)Nc1ccc2c(c1)CCC2 [Example C37, 2-[3-(3,4-dichlorophenyl)-8-fluoro-4-oxo(3-hydroquinazolin-2-ylthio)]-N-indan-5-ylacetamide] | – | – | 5 to 25 | 10 to 50 | –
16 | O=C(CSc1nc2ccccc2c(=O)n1-c1cc(F)cc(F)c1)Nc1ccc2c(c1)CCC2 [Example C38, 2-[3-(3,5-difluorophenyl)-4-oxo(3-hydroquinazolin-2-ylthio)]-N-indan-5-ylacetamide] | – | – | 5 to 25 | ≥ 100 | –
17 | O=C(CSc1nc2c(F)cccc2c(=O)n1-c1cc(Cl)cc(Cl)c1)Nc1ccc2c(c1)CCC2 [Example C39, 2-[3-(3,5-dichlorophenyl)-8-fluoro-4-oxo(3-hydroquinazolin-2-ylthio)]-N-indan-5-ylacetamide] | – | – | 5 to 25 | 50 to 100 | –
18 | O=C(CSc1nc2ccccc2c(=O)n1-c1c(Cl)cccc1Cl)Nc1ccc2c(c1)CCC2 [Example C40, 2-[3-(2,6-dichlorophenyl)-4-oxo(3-hydroquinazolin-2-ylthio)]-N-indan-5-ylacetamide] | – | – | 5 to 25 | ≥ 100 | –
19 | O=C(CSc1nc2ccccc2c(=O)n1-c1ccc(Cl)c(Br)c1)Nc1ccc2c(c1)CCC2 [Example C41, 2-[3-(3-bromo-4-chlorophenyl)-4-oxo(3-hydroquinazolin-2-ylthio)]-N-indan-5-ylacetamide] | – | – | 5 to 25 | ≥ 100 | –
20 | O=C(CSc1nc2c(F)cccc2c(=O)n1-c1ccccc1)Nc1ccc2c(c1)CCC2 [Example C42, 2-(8-fluoro-4-oxo-3-phenyl(3-hydroquinazolin-2-ylthio))-N-indan-5-ylacetamide] | – | – | 5 to 25 | ≥ 100 | –
21 | O=C(CSc1nc2ccccc2c(=O)n1-c1cc(F)c(F)cn1)Nc1ccc2c(c1)CCC2 [Example C43, 2-[3-(4,5-difluoro(2-pyridyl))-4-oxo(3-hydroquinazolin-2-ylthio)]-N-indan-5-ylacetamide] | – | – | 5 to 25 | ≥ 100 | –
22 | O=C(CSc1nc2ccccc2c(=O)n1-c1ccc(Cl)c(Cl)c1)Nc1nc(-c2ccccc2)cs1 [Example C45, 2-[3-(3,4-dichlorophenyl)-4-oxo(3-hydroquinazolin-2-ylthio)]-N-(4-phenyl(1,3-thiazol-2-yl))acetamide] | < 1 | ≥ 100 | – | – | IC50 (HCV Con 1b (Replicon)): < 1 µM; CC50 (HCV Con 1b (Replicon)): 50 to 100 µM
